Experimental data as given in patent US4018777A, “2-Substituted-5-alkyl resorcinols” (Abbott Laboratories, priority 1975, dated 1977).

Key:
[1] = test system: methamphetamine (Desoxyn)-induced motor activity; assay: Antipsychotic activity (Rat Desoxyn antagonism), motor activity; type: in vivo; details: oral, one hour before test; for Antipsychotic activity (Rat Desoxyn antagonism): 10 mg./kg., methamphetamine 3 mg./kg. sc, vs. Desoxyn treated controls
Experimental: Antipsychotic Activity (Rat Desoxyn Antagonism)
Antipsychotic activity (Desoxyn antagonism) was evaluated in motor activity chambers equipped with photocells. Groups of nine rats were given the compound orally one hour before the test and then administered methamphetamine (Desoxyn) 3 mg./kg. sc, and placed in the chamber. Changes in motor activity were recorded as counts from the photocells and are compared to Desoxyn treated controls.

[2] = test system: audiogenic seizure in mice; assay: Anticonvulsant activity, audiogenic seizure test (mouse); type: in vivo, mouse (male O'Grady strain); details: 1 hr.; for Anticonvulsant activity, audiogenic seizure: % protection: 100 mg./kg.
Text: Audiogenic Seizure Test (Mouse)
Male O'Grady strain mice (14 to 16 g.) especially bred for susceptibility to audiogenic seizures were used as subjects. The audiogenic apparatus consisted of a wooden box enclosing a metal container with two doorbells attached to the upper section. […] [Ref: N. P. Plotnikoff and D. M. Green, J, Pharmacol. Exp. Ther., 119, 294 (1957)].

[3] = test system: pain threshold to radiant heat on tail (rat tail flick); assay: Analgesic activity, rat tail flick (RTF); type: in vivo, rat (male Sprague-Dawley); details: oral, 2 hours after dosing
Experimental: (§1) The compounds of this invention are useful as analgesic agents, tranquilizers, sedative-hypnotics and anticonvulsants. The compounds are effective at dosages generally of from 1 to 10 mg./kg. of body weight daily. The analgesic activity was established in the standard mouse writhing test [Whittle, Brit. J. Pharmacol., 22, 296 (1964)] and confirmed in the hot plate assay [Woolfe, G. and McDonald, A. J., J. Pharmacol, Exper. Therap., 80, 300 (1944)] and the rat tail flick test.
In testing for analgesic activity by the rat tail flick method described by [F. E. D'Amour and D. L. Smith, J Pharmcol. Exp. Ther. 72, 74 (1941)], the method was modified as follows. Groups of male Sprague-Dawley rats weighing 140-170 g. are prepared by blackening their tails with India ink. Radiant heat is focused on their tails and adjusted so that the normal pain threshholds (time in seconds until an escape response or tail flick occurs) are in the range of 8 to 10 seconds. This is followed by oral administration of the test compound and hourly measurements of the animals' pain threshholds. The analgesic effects are listed in Table I as percent increase over initial pain threshhold 2 hours after dosing, or ED50's.

[4] = test system: acetic acid-induced writhing in mice; assay: Analgesic activity, acetic acid writhing test (W); type: in vivo, mouse (Swiss-Webster female)
Experimental: as §1
In testing for the analgesic effect of the present compounds, the acetic acid writhing test was made as that described by [B. A. Whittle, Brit. J. Pharmacol 22, 246 (1964)]. Groups of Swiss-Webster female mice were given oral doses of the drug or control vehicle. The use of the intravenous dye was eliminated. One hour later they were given 0.4 ml. of 0.5% HOAc intraperitoneally. The number of writhes occurring in 20 minutes were counted starting 5 minutes after the injection of HOAc. Analgesic activity was reported as percent inhibition of writhing vs. controls or as ED50%.

Compound	Anticonvulsant activity, audiogenic seizure: % protection [2] [%]	Analgesic activity, RTF: percent increase over initial pain threshhold ([3]; 40 mg./kg.) [%]	Antipsychotic activity (Rat Desoxyn antagonism) [1] [%]	other results
C=C(C)c1ccncc1-c1c(O)cc(C(C)C(C)CCCCC)cc1O (stereo not drawn) [Compound (VIII), 2-[4-Isopropenyl-3-Pyridyl]-5-(3-Methyl-2-Octyl) Resorcinol]	100	59	–	Antipsychotic activity (Rat Desoxyn antagonism), result in words ([1]; dose not stated): Inactive
CCCCCC(C)C(C)c1cc(O)c(-c2cnccc2C(C)C)c(O)c1 (stereo not drawn) [Compound (X), 2-[4-Isopropyl-3-pyridyl]-5-(3-methyl-2-octyl)resorcinol]	60	53	–	ED50 ([4]; Mus musculus, po): 44 mg/kg
C=C(C)c1ccncc1-c1c(OC(C)=O)cc(C(C)C(C)CCCCC)cc1OC(C)=O (stereo not drawn) [Compound (VII), 1,3-Diacetyl-2-[4-Isopropenyl-3-Pyridyl]-5-(3-Methyl-2-Octyl)Resorcinol]	–	–	66	ED50 ([2]; Mus musculus, protection, estimated (est.)): ~9 mg/kg; Analgesic activity, RTF: percent increase over initial pain threshhold ([3]; 20 mg./kg.): 23%
CCCCCC(C)C(C)c1cc(O)c(-c2cc(C)ccc2C(C)C)c(O)c1 (stereo not drawn) [Compound (XII), 2-[(2-Isopropyl-5-methyl)phenyl]-5-(3-methyl-2-octyl)resorcinol]	60	–	77	Analgesic activity, W(PO): percent inhibition of writhing vs. controls ([4]; 40 mg./kg.): 47%; Analgesic activity, RTF: percent increase over initial pain threshhold ([3]; 22 mg./kg.): 45%
C=C(C)c1ccc(C)cc1-c1c(OC(C)=O)cc(C(C)C(C)CCCCC)cc1OC(C)=O (stereo not drawn) [Compound (XI), 1,3-Diacetyl-2-[(2-isopropenyl-5-methyl)phenyl]-5-(3-methyl-2-octyl)resorcinol]	70	–	55	Analgesic activity, W(PO): percent inhibition of writhing vs. controls ([4]; 10-40 mg./kg.): 40-50%
CCCCCC(C)C(C)c1cc(OC(C)=O)c(-c2cnccc2C(C)C)c(OC(C)=O)c1 (stereo not drawn) [Compound (IX), 1,3-Diacetyl-2-[4-Isopropyl-3-Pyridyl]-5-(3-Methyl-2-Octyl)Resorcinol]	–	20	–	Analgesic activity, W(PO): percent inhibition of writhing vs. controls ([4]; 80 mg./kg.): 30%
